Experiments:
Pyrenophora teres [1] = assay: Example B-12: Pyrenophora teres / barley / leaf disc preventive (comparative); assay type: in vivo; details: 4 dpi
Description: (§1) Pyrenophora teres/Barley/Leaf Disc Preventive (Net Blotch) Barley leaf segments were placed on agar in a multiwell plate (24-well format) and sprayed with test solutions. After drying, the leaf disks were inoculated with a spore suspension of the fungus. After appropriate incubation the activity of a compound was assessed 4 dpi (days after inoculation) as preventive fungicidal activity.

Pyrenophora teres [2] = assay: Example B-8: Action against Pyrenophora teres (net blotch) on barley leaf segments; assay type: in vivo; details: foliar, 96 h, 0.02% active ingredient, 4 days after inoculation, read-out: preventive fungicidal activity (inhibition)
Description: Action Against Pyrenophora teres (Net Blotch) on Barley Barley leaf segments were placed on agar in multiwell plates (24-well format) and sprayed with test solutions (0.02% active ingredient). After drying, the leaf disks were inoculated with a spore suspension of the fungus. After appropriate incubation the activity of a compound was assessed 4 days after inoculation as preventive fungicidal activity.

[3] = tested on: Botryotinia fuckeliana (Botrytis cinerea); assay: Example B-14: Botryotinia fuckeliana (Botrytis cinerea) / liquid culture (comparative); assay type: cell-based; details: 24° C., photometric after 3-4 days, read-out: inhibition of growth
Description: Botryotinia fuckeliana (Botrytis cinerea)/Liquid Culture (Gray Mould) Conidia of the fungus from cryogenic storage were directly mixed into nutrient broth. After placing a (DMSO) solution of the test compounds into a microtiter plate (96-well format) the nutrient broth containing the fungal spores was added. The test plates were incubated at 24° C. and the inhibition of growth is determined photometrically after 3-4 days.

[4] = tested on: Blumeria graminis f. sp. tritici (Erysiphe graminis f. sp. tritici); assay: Example B-9: Blumeria graminis f. sp. tritici / wheat / leaf disc preventive (comparative); assay type: in vivo; details: 4 dpi
Description: as §1, with “Blumeria graminis f. sp. tritici (Erysiphe graminis f. sp. tritici)/Wheat/Leaf” for “Pyrenophora teres/Barley/Leaf”, “(Powdery mildew on wheat) Wheat” for “(Net Blotch) Barley”

Gaeumannomyces graminis = assay: Example B-17: Gaeumannomyces graminis / liquid culture (comparative); assay type: cell-based; details: 24 C, photometric after 2-3 days, read-out: inhibition of growth
Description: Gaeumannomyces graminis/Liquid Culture (Take-All of Cereals) Mycelial fragments of the fungus from cryogenic storage were directly mixed into nutrient broth (PDB potato dextrose broth). After placing a (DMSO) solution of the test compounds into a microtiter plate (96-well format) the nutrient broth containing the fungal spores was added. The test plates were incubated at 24 C and the inhibition of growth was determined photometrically after 2-3 days.

**Q.** With `CON(C(=O)c1cn(C)nc1C(F)F)C(C)c1ccc(Cl)cc1Cl` (stereo not shown) [Compound 1.023] as the molecule, how does the preventive fungicidal activity (Pyrenophora teres [1]; 20 ppm) read?
**A.** The preventive fungicidal activity was 100.

**Q.** What about the preventive fungicidal activity (Pyrenophora teres [1]; 60 ppm) of the same molecule?
**A.** Its preventive fungicidal activity is 100.

**Q.** What about the preventive fungicidal activity (Pyrenophora teres [1]; 200 ppm) of the same molecule?
**A.** The preventive fungicidal activity was 100.

**Q.** What about the inhibition at 0.02 % strength (Pyrenophora teres [2]) of the same molecule?
**A.** The inhibition at 0.02 % strength was no less than 80%.

**Q.** What about the inhibition at 20 ppm ([3]; 20 ppm) of the same molecule?
**A.** Its inhibition at 20 ppm is 20%.

**Q.** What about the inhibition at 60 ppm ([3]; 60 ppm) of the same molecule?
**A.** Its inhibition at 60 ppm is 100%.

**Q.** What about the inhibition at 200 ppm ([3]; 200 ppm) of the same molecule?
**A.** Its inhibition at 200 ppm is 100%.

**Q.** And the preventive fungicidal activity ([4]; 20 ppm)?
**A.** Its preventive fungicidal activity is 90.

**Q.** What about the preventive fungicidal activity ([4]; 60 ppm) of the same molecule?
**A.** Its preventive fungicidal activity is 100.

**Q.** What about the preventive fungicidal activity ([4]; 200 ppm) of the same molecule?
**A.** Its preventive fungicidal activity is 100.

**Q.** What about the inhibition at 6 ppm (Gaeumannomyces graminis; 6 ppm) of the same molecule?
**A.** Its inhibition at 6 ppm is 0%.

**Q.** And the inhibition at 20 ppm (Gaeumannomyces graminis; 20 ppm)?
**A.** The inhibition at 20 ppm was 0%.

**Q.** What about the inhibition at 60 ppm (Gaeumannomyces graminis; 60 ppm) of the same molecule?
**A.** The inhibition at 60 ppm was 50%.

— patent US8357634B2, “N-alkoxycarboxamides and their use as microbiocides” (Syngenta Crop Protection LLC, priority 2009, dated 2013)
